Measurements published in US20110294698A1, “PROCESS FOR IDENTIFYING DRUGS FOR TREATING GASTROESOPHAGEAL REFLUX” (Temple University of the Commonwealth System of Higher …, priority 2008, published 2011).
Entries after “also recorded” stand apart in the source; their conditions may differ. Where two headings read alike, the source gives them in different places.

Legend:
human clasp fibers [1] = assay: carbachol induced contraction and relaxation of muscle strips, with potential inhibitors of relaxation; assay type: cell-based; details: for inhibition of carbachol induced relaxation: mecamylamine 10 μM, hexamethonium 100 μM, L-NAME 50 μM
human LEC fibers [2] = assay: as above; assay type: cell-based; details: for inhibition of carbachol induced relaxation: mecamylamine 10 μM, hexamethonium 100 μM, L-NAME 50 μM
human sling fibers [3] = assay: nicotine or choline induced relaxation of bethanechol pre-contracted muscle strips; assay type: cell-based
pig clasp fibers = assay type: cell-based
[4] = system: gastroesophageal junction high-pressure zone; parameters: species or system human; details: in vivo, iv
[5] = system: gastroesophageal junction high-pressure zone; details: in vivo; cited from earlier work
human clasp fibers [6] = assay: bethanechol induced contraction of muscle strips, with or without antagonist (Schild analysis); assay type: cell-based
human sling fibers [7] = assay: as above; assay type: cell-based
human LEC fibers [8] = assay: as above; assay type: cell-based
human MEC fibers [9] = assay: as above; assay type: cell-based
human MEL fibers [10] = assay: as above; assay type: cell-based
M3 receptor = M3 receptor (Homo sapiens, UniProt P20309); details: cited from earlier work
M3 receptor, sequence (P20309 whole entry): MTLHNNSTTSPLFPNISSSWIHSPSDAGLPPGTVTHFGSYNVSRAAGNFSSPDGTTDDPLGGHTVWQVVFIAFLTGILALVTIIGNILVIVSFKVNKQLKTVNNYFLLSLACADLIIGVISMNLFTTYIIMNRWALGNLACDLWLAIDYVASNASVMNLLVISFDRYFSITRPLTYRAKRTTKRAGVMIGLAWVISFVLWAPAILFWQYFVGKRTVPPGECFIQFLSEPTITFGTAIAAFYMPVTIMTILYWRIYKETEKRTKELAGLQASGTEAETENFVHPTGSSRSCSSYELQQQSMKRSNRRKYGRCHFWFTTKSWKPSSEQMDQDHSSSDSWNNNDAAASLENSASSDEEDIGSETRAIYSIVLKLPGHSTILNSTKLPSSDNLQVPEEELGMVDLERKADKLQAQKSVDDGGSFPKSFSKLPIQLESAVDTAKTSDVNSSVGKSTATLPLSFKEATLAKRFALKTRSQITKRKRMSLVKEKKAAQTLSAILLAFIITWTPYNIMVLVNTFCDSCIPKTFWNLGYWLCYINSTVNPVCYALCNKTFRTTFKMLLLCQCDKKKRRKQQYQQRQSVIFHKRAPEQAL

M2 receptor = target: T1, M2 receptor (Homo sapiens, UniProt P08172); details: published value; cited from earlier work
T1 sequence (P08172 1-466): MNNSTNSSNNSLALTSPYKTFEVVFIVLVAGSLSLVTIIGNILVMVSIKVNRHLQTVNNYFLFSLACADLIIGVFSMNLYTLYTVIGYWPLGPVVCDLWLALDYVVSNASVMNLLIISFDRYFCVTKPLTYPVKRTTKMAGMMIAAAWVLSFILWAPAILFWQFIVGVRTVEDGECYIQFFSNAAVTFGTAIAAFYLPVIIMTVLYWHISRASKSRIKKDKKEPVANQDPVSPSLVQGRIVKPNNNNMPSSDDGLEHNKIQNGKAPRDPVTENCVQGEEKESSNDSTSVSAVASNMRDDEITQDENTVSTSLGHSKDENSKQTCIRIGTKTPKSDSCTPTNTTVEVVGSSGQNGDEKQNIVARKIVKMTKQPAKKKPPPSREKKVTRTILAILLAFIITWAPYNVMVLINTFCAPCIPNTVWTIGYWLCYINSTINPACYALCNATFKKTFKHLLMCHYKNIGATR

human sling fibers [11] = assay: carbachol induced contraction and relaxation of muscle strips, with potential inhibitors of relaxation; assay type: cell-based; details: for inhibition of carbachol induced relaxation: mecamylamine 10 μM, hexamethonium 100 μM
human MEC fibers [12] = assay: carbachol cumulative concentration response of muscle strips; assay type: cell-based
From the text: (§1) Beginning at the cardiac notch, the sling fiber complex was separated from the underlying submucosa by sharp dissection and this tissue plane was followed completely around the lesser curvature thus separating the clasp fibers from underlying submucosa. The clasp fiber complex was removed from the sling fiber complex by sharp dissection and cut into 10-12 smooth muscle strips approximately 3×3×8 mm with the long axis parallel to the direction of the muscle fibers. Similar muscle strips were cut from the middle of the sling fiber complex such that these strips were derived from the sling fibers in the cardiac notch. These smooth muscle strips were suspended in 10 ml muscle baths between platinum electrodes in Tyrode's solution continuously bubbled with 95% O2/5% CO2 and maintained at 37° C. The muscle strips were stretched to approximately 150% of their slack length which produced approximately 1 gram of basal tension and were then allowed to accommodate to the muscle bath for at least 60 minutes prior to investigation of contractile response.
(§2) Representative traces of the contractile response to 120 mM KCl in isotonic Tyrode's solution followed by a wash and 60 minute re-equilibration period then a cumulative concentration response curve to the selective muscarinic receptor agonist bethanechol (left) or the muscarinic and nicotinic agonist carbachol (right) is shown in FIG. 11. […]

human MEL fibers [13] = assay: as above; assay type: cell-based
From the text: as §1, §2

human clasp fibers [14] = assay: nicotine or choline induced relaxation of bethanechol pre-contracted muscle strips; assay type: cell-based
human LEC fibers [15] = assay: as above; assay type: cell-based
[16] = inhibitor 30 min, then carbachol rechallenge, others as in Table 6
[17] = mean ± SEM, read-out: BETH pEC50 (bethanechol potency) (converted)
[18] = Barrett's esophagitis donors vs no GERD history
[19] = cumulative concentration response

COC(=O)[C@@H](N)CCCNC(=N)N[N+](=O)[O-] [L-NAME]
inhibition of carbachol induced relaxation (human clasp fibers [1]; […], others as in Table 6): inhibited | inhibition of carbachol induced relaxation (human LEC fibers [2]; […]): inhibited | inhibition of nicotine induced relaxation (human sling fibers [3]): inhibited

CC[N+](CC)(CC)CCOc1ccc(/C=C/c2ccccc2)cc1 [MG624]
inhibition of carbachol induced relaxation (human clasp fibers [1]; [16]): blocked

CCCCCCCCCC[n+]1cccc([C@@H]2CCCN2C)c1.[I-] [NDNI]
inhibition of carbachol induced relaxation (human clasp fibers [1]; […], others as in Table 6): blocked

CC(=O)OCC[N+](C)(C)C [acetylcholine]
concentration above which abrupt relaxations were produced (pig clasp fibers; acetylcholine with physostigmine to block cholinesterase): higher than 30 uM

CN1[C@@H]2CC[C@H]1C[C@@H](OC(=O)C(CO)c1ccccc1)C2 (stereo partly drawn) [atropine]
effect on the pressure profile generated by placement of the plications [4]: abolished | effect on the resting sphincteric pressure [5]: dose-dependent partial suppression

CC(C[N+](C)(C)C)OC(N)=O (stereo not drawn) [bethanechol]
BETH MAX (maximal tension) (human clasp fibers [6]; mean ± SEM): 1.20 ± 0.17 (n = 14) b d | EC50 (human clasp fibers [6]; [17]): 1.58 µM | BETH MAX (maximal tension) (human sling fibers [7]; mean ± SEM): 2.18 ± 0.24 (n = 37) c d e | EC50 (human sling fibers [7]; [17]): 10.5 µM | BETH MAX (maximal tension) (human LEC fibers [8]; mean ± SEM): 0.92 ± 0.09 (n = 29) | EC50 (human LEC fibers [8]; [17]): 6.46 µM | BETH MAX (maximal tension) (human MEC fibers [9]; mean ± SEM): 0.79 ± 0.07 (n = 24) e | EC50 (human MEC fibers [9]; [17]): 45.7 µM | BETH MAX (maximal tension) (human MEL fibers [10]; mean ± SEM): 1.37 ± 0.21 (n = 10) | EC50 (human MEL fibers [10]; [17]): 15.8 µM | KA (agonist dissociation constant) for M3 (M3 receptor; published value): 110 µM | KA (agonist dissociation constant) for M2 (M2 receptor): 170 µM

C[N+](C)(C)CCOC(N)=O [carbachol]
maximal contractile response to carbachol, definite GERD (human clasp fibers [1]; [18]): decreased | carbachol induced relaxations, probable and definite GERD (human clasp fibers [1]; carbachol higher than 100 μM): decreased | concentration above which abrupt relaxations were produced (human clasp fibers [1]; increasing carbachol concentrations (Example 9)): higher than 30 uM | relaxation response to high carbachol concentration as a percentage of the maximal contractile response (human clasp fibers [1]; mean±sem): 131±6% | carbachol-induced relaxations with high concentrations of carbachol, donors with GERD compared to non-GERD controls (human clasp fibers [1]; p<0.05): significantly lower | maximal carbachol induced contraction, donors with GERD compared to non-GERD donors (human clasp fibers [1]; p<0.05): significantly lower | carbachol induced relaxation, GERD compared to non-GERD controls (human sling fibers [11]): no difference | carbachol induced relaxations, definite GERD (human sling fibers [11]; carbachol higher than 100 μM): greater | carbachol concentration at which relaxation response is observed (human sling fibers [11]; [19]): ≥ 300 µM | relaxation response to high carbachol concentration as a percentage of the maximal contractile response (human sling fibers [11]; mean±sem): 29±4% | maximal carbachol induced contraction, donors with GERD compared to donors without GERD (human sling fibers [11]; p<0.05): greater | contractility to carbachol, definite and probable GERD (human sling fibers [11]; vs no GERD history): increased | maximal contractile response to carbachol, definite GERD (human LEC fibers [2]; [18]): decreased | carbachol induced relaxations, probable and definite GERD (human LEC fibers [2]; carbachol higher than 100 μM): higher | carbachol concentration at which relaxation response is observed (human LEC fibers [2]; [19]): ≥ 300 µM | relaxation response to high carbachol concentration as a percentage of the maximal contractile response (human LEC fibers [2]; mean±sem): 54±9% | abrupt relaxation response to high carbachol concentrations (human MEC fibers [12]): not observed | abrupt relaxation response to high carbachol concentrations (human MEL fibers [13]): not observed

C[N+](C)(C)CCCCCCCCCC[N+](C)(C)C [decamethonium]
inhibition of carbachol induced relaxation (human clasp fibers [1]; […], others as in Table 6): inhibited | inhibition of carbachol induced relaxation (human sling fibers [11]; […], others as in Table 6): inhibit

C[N+](C)(C)CCCCCC[N+](C)(C)C [hexamethonium]
inhibition of carbachol induced relaxation (human sling fibers [11]; […], others as in Table 6): did not | inhibition of carbachol induced relaxation (human sling fibers [11]; […], others as in Table 6, listed as HEX): inhibit | inhibition of carbachol induced relaxation (human LEC fibers [2]; […]): did not

CNC1(C)C2CCC(C2)C1(C)C (stereo not drawn) [mecamylamine]
inhibition of carbachol induced relaxation (human clasp fibers [1]; [16]): inhibited; also recorded: blocked; also recorded: only partially effective | inhibition of carbachol induced relaxation (human sling fibers [11]; [16]): inhibited | inhibition of carbachol induced relaxation (human sling fibers [11]; inhibitor 30 min, then carbachol rechallenge, others as in Table 6, listed as MEC): inhibit | inhibition of carbachol induced relaxation (human LEC fibers [2]; inhibitor 30 min, then carbachol rechallenge): inhibited | inhibition of nicotine induced relaxation (human clasp fibers [14]; human clasp fibers, 30 μM bethanechol then 1 mM nicotine, MLA 10 nM, MECA 10 μM): significantly inhibited | inhibition of nicotine induced relaxation (human sling fibers [3]; human sling fibers, 30 μM bethanechol then 1 mM nicotine, MLA 10 nM, MECA 10 μM): significantly inhibited | inhibition of nicotine induced relaxation (human LEC fibers [15]; human LEC fibers, 30 μM bethanechol then 1 mM nicotine, MLA 10 nM, MECA 10 μM): significantly inhibited

COc1ccccc1CNCCCCCCNCCCCCCCCNCCCCCCNCc1ccccc1OC [methoctramine]
potency (pA2) to inhibit bethanechol induced contraction (human clasp fibers [6]): 6.3±0.2 | potency (pA2) to inhibit bethanechol induced contraction (human sling fibers [7]): 6.8±0.2 | potency (pA2) to inhibit bethanechol induced contraction (human LEC fibers [8]): 6.2±0.2 | potency (pA2) to inhibit bethanechol induced contraction (human MEC fibers [9]): 5.7±0.2 | potency (pA2) to inhibit bethanechol induced contraction (human MEL fibers [10]): 5.6±0.3 | pKB M3 (M3 receptor; published affinity value): 6.6

CCN1C[C@]2(COC(=O)c3ccccc3N3C(=O)C[C@H](C)C3=O)CC[C@H](OC)[C@@]34[C@@H]5C[C@H]6[C@H](OC)[C@@H]5[C@](O)(C[C@@H]6OC)[C@@](O)([C@@H](OC)[C@H]23)[C@@H]14 [methyllycaconitine]
inhibition of carbachol induced relaxation (human clasp fibers [1]; […], others as in Table 6): did not | inhibition of carbachol induced relaxation (human clasp fibers [1]; […], others as in Table 6, listed as methyllycaconotine): ineffective | inhibition of nicotine induced relaxation (human clasp fibers [14]): no inhibitory effect | inhibition of nicotine induced relaxation (human sling fibers [3]): no inhibitory effect | inhibition of nicotine induced relaxation (human LEC fibers [15]): no inhibitory effect

CN1CCCC1c1cccnc1 (stereo not drawn) [nicotine]
nicotine induced relaxation of bethanechol pre-contracted fibers (human clasp fibers [14]; human clasp fibers): relax | nicotine induced relaxation of bethanechol pre-contracted fibers (human sling fibers [3]; human sling fibers, 30 μM bethanechol, 100 μM nicotine): relax; also recorded: induces a relaxation | nicotine induced relaxation of bethanechol pre-contracted fibers (human LEC fibers [15]; human LEC fibers): relax

CC(=O)O[C@H]1C[C@@H]2CC[C@@H]3[C@H](CC[C@@]4(C)[C@H]3C[C@H]([N+]3(C)CCCCC3)[C@@H]4OC(C)=O)[C@@]2(C)C[C@@H]1[N+]1(C)CCCCC1 [pancuronium]
inhibition of cholinergic agonist induced relaxation (pig clasp fibers; […], 1E−5 molar): inhibited

CC(C)NCC(O)COc1cccc2ccccc12 (stereo not drawn) [propranolol]
inhibition of nicotine induced relaxation (human sling fibers [3]; human sling fibers, 30 μM bethanechol then 100 μM nicotine, inhibitor 30 min): inhibited

NC1=N[C@H](O)[C@H]2[C@H]3O[C@]4(O)O[C@@H]([C@@H](O)[C@@]2(N1)[C@@H]4O)[C@]3(O)CO [tetrodotoxin]
inhibition of nicotine induced relaxation (human sling fibers [3]): reduced the relaxation but not completely

COc1cc2c3cc1Oc1cc(ccc1O)C[C@@H]1c4c(cc(OC)c(O)c4Oc4ccc(cc4)C[C@@H]3N(C)CC2)CC[N+]1(C)C [tubocurarine]
inhibition of carbachol induced relaxation (human clasp fibers [1]; […], others as in Table 6): inhibited | inhibition of carbachol induced relaxation (human sling fibers [11]; […], others as in Table 6): inhibit
